Measured values reported in patent EP0359505A1, “Dopamine-beta hydroxylase inhibitors” (SMITHKLINE BEECHAM CORPORATION, priority 1988, dated 1990).

Experiments:
[1] = system: spontaneously hypertensive rats; assay: mean arterial blood pressure in spontaneously hypertensive rats, indwelling cannulae in the tail arteries; assay type: in vivo; details: 100 mg/kg orally
Experimental: Further, spontaneously hypertensive rats were treated with 3-mercapto-4-benzyl-5-(4-pyridyl)-1,2,4-triazole at a dose of 100 mg/kg orally and mean arterial blood pressure was monitored for 250 minutes using indwelling cannulae in the tail arteries. […] The maximal blood pressure reduction was approximately 25 mmHg.

[2] = see Teresawa et al.; cited from earlier work
DBH = biological target: T1, DBH (Homo sapiens, UniProt P09172); details: as reported by Runti et al.; cited from earlier work
T1 sequence (P09172 1-617): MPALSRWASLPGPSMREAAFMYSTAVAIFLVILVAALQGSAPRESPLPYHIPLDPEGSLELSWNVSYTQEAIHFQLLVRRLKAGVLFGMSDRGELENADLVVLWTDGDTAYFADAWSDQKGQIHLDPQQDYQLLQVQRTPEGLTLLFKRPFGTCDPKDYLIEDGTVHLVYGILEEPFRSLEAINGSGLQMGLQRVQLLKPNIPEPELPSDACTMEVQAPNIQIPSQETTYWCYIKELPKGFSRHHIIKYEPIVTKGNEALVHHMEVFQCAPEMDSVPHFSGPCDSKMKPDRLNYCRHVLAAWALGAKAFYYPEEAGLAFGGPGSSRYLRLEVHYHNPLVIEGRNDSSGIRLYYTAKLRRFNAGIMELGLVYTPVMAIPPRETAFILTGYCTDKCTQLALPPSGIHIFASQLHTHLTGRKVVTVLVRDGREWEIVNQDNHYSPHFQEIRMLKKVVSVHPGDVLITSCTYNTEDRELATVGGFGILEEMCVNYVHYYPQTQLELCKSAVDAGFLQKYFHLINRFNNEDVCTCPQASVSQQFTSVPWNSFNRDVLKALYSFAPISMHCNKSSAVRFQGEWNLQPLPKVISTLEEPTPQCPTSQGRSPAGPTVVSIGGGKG

Sc1nnc(-c2ccncc2)n1Cc1ccccc1 [3-Mercapto-4-benzyl-5-(4-pyridyl)-1,2,4-triazole]
blood pressure compared to vehicle-treated controls ([1]; between 80 and 240 minutes following treatment): significant blood pressure reductions | maximal blood pressure reduction ([1]; mean arterial blood pressure monitored for 250 minutes, compared to vehicle-treated controls): approximately 25 mmHg

CCCCc1ccc(C(=O)O)nc1 [Fusaric acid]
toxic effects [2]: hepatotoxic

phenylpicolinic acid
inhibitory activity relative to fusaric acid (DBH): twice the inhibitory activity of fusaric acid
